# Measured values taken from patent US12568971B2, “Degradative method” (Catexel Technologies Limited, priority 2020, dated 2026).
# Experiments:
# [1] = Dynamic viscosity of alginate solution after treatment (alginate depolymerisation), Brookfield cone/plate viscometer
# Description: The bottle was placed in a warm water bath (50° C.) for 60 minutes before being removed and cooled in an ice bath. Finally, the dynamic viscosity was determined using a Brookfield viscosity meter as outlined below. Note 1: A 2 mM solution of [[…])2 (see description of stock 12 above) was mixed with equivalent volume of the 2 mM ascorbic acid stock solution (stock solution 7). Upon contact with the ascorbic acid, the catalyst turned from orange/red to red/purple. Note 2: 0.5 mL of both Me3-TACN ligand (stock solution 10) and MnSO4·H2O (stock solution 8) were mixed, stirred and used as a source of catalyst to be placed in the alginate solution. The dynamic viscosity of the samples was measured using a Brookfield HBDV-II cone/plate viscosity meter equipped with a spindle CPE-40. The viscometer was linked to a water bath to maintain the temperature at 25° C. The apparatus was controlled via computer (external mode) using the Rheocalc software. Initially, the viscometer was zeroed without spindle. Then, the spindle CPE-40 was installed and the gap between the bottom of the cone and the top of the cup was set according to the recommendations given by Brookfield. 0.5 mL of the treated alginate solution was placed in the cup of the viscometer using a disposable plastic syringe before the apparatus was closed and the test program launched. […] Results.
# [2] = as above; remark: listed apart in the source
smiles,measurement,setting,value
"CC(=O)[O-].CC(=O)[O-].CN1CCN(C)CCN(C)CC1.CN1CCN(C)CCN(C)CC1.[Mn+4].[Mn+4].[O-2].[O-2].[O-2] [[Mn2(μ-O)3(Me3-TACN)2]^2+, [Mn^IVMn^IV(μ-O)3(1,4,7-trimethyl-1,4,7-triazacyclononane)2][CH3COO]2]",Dynamic Viscosity,"[1]; 2.5 μM, pH 8.0, 20 mM H2O2, 4.7 mM NaHCO3, 1 h at 50° C.",85.0 mPa.s
same,Dynamic Viscosity,"[1]; 2.5 μM, pH 8.5, 20 mM H2O2, 4.7 mM NaHCO3, 1 h at 50° C.",72.2 mPa.s
same,Dynamic Viscosity,"[1]; 2.5 μM, pH 9.0, 20 mM H2O2, 4.7 mM NaHCO3, 1 h at 50° C.",55.7 mPa.s
same,Dynamic Viscosity,"[1]; 2.5 μM, pH 9.0, 20 mM H2O2, 1 h at 50° C.",99.7 mPa · s
same,Dynamic Viscosity,"[1]; 2.5 μM, pH 9.5, 20 mM H2O2, 4.7 mM NaHCO3, 1 h at 50° C.",59.5 mPa.s
same,Dynamic Viscosity,"[1]; 2.5 μM, pH 9.5, 20 mM H2O2, 1 h at 50° C.",76.8 mPa · s
same,Dynamic Viscosity,"[1]; 2.5 μM, pH 10.0, 20 mM H2O2, 4.7 mM NaHCO3, 1 h at 50° C.",81.2 mPa.s
same,Dynamic Viscosity,"[1]; 2.5 μM, pH 10.0, 20 mM H2O2, 1 h at 50° C.",60.6 mPa · s
same,Dynamic Viscosity,"[1]; 2.5 μM, pH 10.5, 20 mM H2O2, 4.7 mM NaHCO3, 1 h at 50° C.",67.5 mPa.s
same,Dynamic Viscosity,"[1]; 2.5 μM, pH 10.5, 20 mM H2O2, 1 h at 50° C.",56.6 mPa · s
same,Dynamic Viscosity,"[1]; 2.5 μM, pH 11.0, 20 mM H2O2, 1 h at 50° C.",64.8 mPa · s
same,Dynamic Viscosity,"[1]; 5 μM, 20 mM ^tBuOOH, 0.25 g/L sodium tetraborate decahydrate pH 9, 60 min at 50° C.",52.3 mPa · s
same,Dynamic Viscosity,"[1]; 5 μM, pH 8.0, 20 mM H2O2, 4.7 mM NaHCO3, 1 h at 50° C.",50.9 mPa.s
same,Dynamic Viscosity,"[1]; 5 μM, pH 8.5, 20 mM H2O2, 4.7 mM NaHCO3, 1 h at 50° C.",38.6 mPa.s
same,Dynamic Viscosity,"[1]; 5 μM, pH 9, 10 mM H2O2, 4.7 mM NaHCO3, 60 min at 50° C.",21.6 mPa · s
same,Dynamic Viscosity,"[1]; 5 μM, pH 9.0, 20 mM H2O2, 4.7 mM NaHCO3, 1 h at 50° C.",24.1 mPa.s
same,Dynamic Viscosity,"[1]; 5 μM, pH 9.0, 20 mM H2O2, 1 h at 50° C.",78.1 mPa · s
same,Dynamic Viscosity,"[1]; 5 μM, pH 9.5, 20 mM H2O2, 4.7 mM NaHCO3, 1 h at 50° C.",28.0 mPa.s
same,Dynamic Viscosity,"[1]; 5 μM, pH 9.5, 20 mM H2O2, 1 h at 50° C.",41.3 mPa · s
same,Dynamic Viscosity,"[1]; 5 μM, pH 10, 10 mM H2O2, 4.7 mM NaHCO3, 60 min at 50° C.",40.6 mPa · s
same,Dynamic Viscosity,"[1]; 5 μM, pH 10.0, 20 mM H2O2, 4.7 mM NaHCO3, 1 h at 40° C.",54.2 mPa · s
same,Dynamic Viscosity,"[1]; 5 μM, pH 10.0, 20 mM H2O2, 4.7 mM NaHCO3, 1 h at 50° C.",61.0 mPa.s
same,Dynamic Viscosity,"[1]; 5 μM, pH 10.0, 20 mM H2O2, 1 h at 50° C.",27.2 mPa · s
same,Dynamic Viscosity,"[1]; 5 μM, pH 10.5, 20 mM H2O2, 4.7 mM NaHCO3, 1 h at 50° C.",57.0 mPa.s
same,Dynamic Viscosity,"[1]; 5 μM, pH 10.5, 20 mM H2O2, 1 h at 50° C.",25.6 mPa · s
same,Dynamic Viscosity,"[1]; 5 μM, pH 11, 10 mM H2O2, 4.7 mM NaHCO3, 60 min at 50° C.",62.1 mPa · s
same,Dynamic Viscosity,"[1]; 5 μM, pH 11.0, 20 mM H2O2, 1 h at 50° C.",40.4 mPa · s
same,Dynamic Viscosity,"[1]; 10 μM +1 molar equivalent ascorbic acid, pH 9.0, 0 mM Dequest 2047, 20 mM H2O2, 4.7 mM NaHCO3, 60 minutes at room temperature",7.9 mPa · s
same,Dynamic Viscosity,"[1]; 10 μM +1 molar equivalent ascorbic acid, pH 9.0, 20 mM H2O2, 4.7 mM NaHCO3, 60 minutes at 40° C.",7.4 mPa.s
same,Dynamic Viscosity,"[1]; 10 μM, no ascorbic acid, pH 9.5, 0 mM Dequest 2047, 20 mM H2O2, 4.7 mM NaHCO3, 60 minutes at room temperature",19.3 mPa · s
same,Dynamic Viscosity,"[1]; 10 μM, no ascorbic acid, pH 10.5, 1.0 mM Dequest 2047, 20 mM H2O2, 4.7 mM NaHCO3, 60 minutes at room temperature",42.6 mPa · s
same,Dynamic Viscosity,"[1]; 10 μM, 1.5 mM PAA + 1.5 mM H2O2, 0.185M Tris buffer, pH 8.5, 60 min at 30° C.",85.3 mPa · s
same,Dynamic Viscosity,"[1]; 10 μM, 3 mM H2O2, 0.185M Tris buffer, pH 8.5, 60 min at 30° C.",49.4 mPa · s
same,Dynamic Viscosity,"[1]; 10 μM, pH 8.0, 20 mM H2O2, 4.7 mM NaHCO3, 1 h at 40° C.",24.2 mPa · s
same,Dynamic Viscosity,"[1]; 10 μM, pH 8.0, 20 mM H2O2, 4.7 mM NaHCO3, 1 h at 50° C.",26.3 mPa.s
same,Dynamic Viscosity,"[1]; 10 μM, pH 8.5, 20 mM H2O2, 4.7 mM NaHCO3, 1 h at 50° C.",16.1 mPa.s
same,Dynamic Viscosity,"[1]; 10 μM, pH 9.0, 20 mM H2O2, 4.7 mM NaHCO3, 1 h at 40° C.",9.1 mPa · s
same,Dynamic Viscosity,"[1]; 10 μM, pH 9.0, 20 mM H2O2, 4.7 mM NaHCO3, 1 h at 50° C.",9.4 mPa.s
same,Dynamic Viscosity,"[1]; 10 μM, pH 9.0, 20 mM H2O2, 1 h at 50° C.",47.9 mPa · s
same,Dynamic Viscosity,"[1]; 10 μM, pH 9.5, 20 mM H2O2, 4.7 mM NaHCO3, 1 h at 40° C.",10.5 mPa · s
same,Dynamic Viscosity,"[1]; 10 μM, pH 9.5, 20 mM H2O2, 4.7 mM NaHCO3, 1 h at 50° C.",12.8 mPa.s
same,Dynamic Viscosity,"[1]; 10 μM, pH 9.5, 20 mM H2O2, 1 h at 50° C.",16.2 mPa · s
same,Dynamic Viscosity,"[1]; 10 μM, pH 10.0, 20 mM H2O2, 4.7 mM NaHCO3, 1 h at 50° C.",38.1 mPa.s
same,Dynamic Viscosity,"[1]; 10 μM, pH 10.0, 20 mM H2O2, 1 h at 50° C.",11.9 mPa · s
same,Dynamic Viscosity,"[1]; 10 μM, pH 10.5, 20 mM H2O2, 4.7 mM NaHCO3, 1 h at 50° C.",49.4 mPa.s
same,Dynamic Viscosity,"[1]; 10 μM, pH 10.5, 20 mM H2O2, 1 h at 50° C.",11.1 mPa · s
same,Dynamic Viscosity,"[1]; 10 μM, pH 11.0, 20 mM H2O2, 1 h at 50° C.",37.4 mPa · s
same,Dynamic Viscosity,"[1]; Entry 4: 2.5 μM catalyst, 2.5 μM ascorbic acid, 2.5 μM Me3TACN ligand, 20 mM H2O2, 4.7 mM NaHCO3, pH 10, 60 min at 50° C.",72.5 mPa · s
same,Dynamic Viscosity,"[1]; Entry 5: 2.5 μM catalyst, 2.5 μM ascorbic acid, 5 μM Me3TACN ligand, 20 mM H2O2, 4.7 mM NaHCO3, pH 10, 60 min at 50° C.",69.3 mPa · s
same,Dynamic Viscosity,"[1]; Entry 6: 2.5 μM catalyst, 2.5 μM ascorbic acid, 10 μM Me3TACN ligand, 20 mM H2O2, 4.7 mM NaHCO3, pH 10, 60 min at 50° C.",61.7 mPa · s
same,Dynamic Viscosity,"[1]; Entry 7: 2.5 μM catalyst, no ascorbic acid, no added ligand, 20 mM H2O2, 4.7 mM NaHCO3, pH 10, 60 min at 50° C.",78.1 mPa · s
same,Dynamic Viscosity,"[1]; Entry 8: 2.5 μM catalyst, 2.5 μM Me3TACN ligand, 20 mM H2O2, 4.7 mM NaHCO3, pH 10, 60 min at 50° C.",73.3 mPa · s
same,Dynamic Viscosity,"[1]; Entry 9: 2.5 μM catalyst, 5 μM Me3TACN ligand, 20 mM H2O2, 4.7 mM NaHCO3, pH 10, 60 min at 50° C.",66.6 mPa · s
same,Dynamic Viscosity,"[1]; Entry 10: 2.5 μM catalyst, 10 μM Me3TACN ligand, 20 mM H2O2, 4.7 mM NaHCO3, pH 10, 60 min at 50° C.",56.8 mPa · s
same,Dynamic Viscosity,"[1]; Entry 11: 5 μM catalyst, no added ligand, 20 mM H2O2, 4.7 mM NaHCO3, pH 10, 60 min at 50° C.",61.0 mPa · s
same,Dynamic Viscosity,"[1]; Entry 12: 5 μM catalyst, 5 μM Me3TACN ligand, 20 mM H2O2, 4.7 mM NaHCO3, pH 10, 60 min at 50° C.",54.0 mPa · s
same,Dynamic Viscosity,"[1]; Entry 13: 5 μM catalyst, 10 μM Me3TACN ligand, 20 mM H2O2, 4.7 mM NaHCO3, pH 10, 60 min at 50° C.",47.7 mPa · s
same,Dynamic Viscosity,"[1]; Entry 14: 5 μM catalyst, 20 μM Me3TACN ligand, 20 mM H2O2, 4.7 mM NaHCO3, pH 10, 60 min at 50° C.",38.1 mPa · s
same,Dynamic Viscosity,"[2]; 5 μM, pH 9.0, 20 mM H2O2, 4.7 mM NaHCO3, 1 h at 40° C.",17.9 mPa · s
same,Dynamic Viscosity,"[2]; 10 μM, 3 mM PAA, 0.185M Tris buffer, pH 8.5, 60 min at 30° C.",94.8 mPa · s
same,Dynamic Viscosity,"[2]; 10 μM, pH 10.5, 20 mM H2O2, 4.7 mM NaHCO3, 1 h at 40° C.",65.5 mPa · s
